Source: US20220402950A1, “SUBSTITUTED BENZIMIDAZOLES AS PAD4 INHIBITORS” (BRISTOL-MYERS SQUIBB COMPANY, priority 2018, published 2022)

target: human PAD4 (hPAD4) (Homo sapiens, UniProt Q9UM07); test: RFMS Human PAD4 Functional Assay; format: biochemical; conditions: hPAD4 RFMS IC50, human PAD4, rapid-fire mass spectrum (RFMS) assay; 5 nM hPAD4, 250 μM BAEE
Method in brief: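 RapidFire ESI-MS quantification, normalised to a modified-citrulline internal standard, after phenyl glyoxal (final 4 mM) derivatisation of the TCA-quenched reaction. The enzyme (10 nM) sat 30 min with compound (up to 50 μM final) before 500 μM BAEE (as added) started a 90 min, 37 °C reaction. Buffer: HEPES pH 7.5, 50 μM calcium, 5 μM TPEN.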

human PAD4 (hPAD4), sequence (Q9UM07 whole entry): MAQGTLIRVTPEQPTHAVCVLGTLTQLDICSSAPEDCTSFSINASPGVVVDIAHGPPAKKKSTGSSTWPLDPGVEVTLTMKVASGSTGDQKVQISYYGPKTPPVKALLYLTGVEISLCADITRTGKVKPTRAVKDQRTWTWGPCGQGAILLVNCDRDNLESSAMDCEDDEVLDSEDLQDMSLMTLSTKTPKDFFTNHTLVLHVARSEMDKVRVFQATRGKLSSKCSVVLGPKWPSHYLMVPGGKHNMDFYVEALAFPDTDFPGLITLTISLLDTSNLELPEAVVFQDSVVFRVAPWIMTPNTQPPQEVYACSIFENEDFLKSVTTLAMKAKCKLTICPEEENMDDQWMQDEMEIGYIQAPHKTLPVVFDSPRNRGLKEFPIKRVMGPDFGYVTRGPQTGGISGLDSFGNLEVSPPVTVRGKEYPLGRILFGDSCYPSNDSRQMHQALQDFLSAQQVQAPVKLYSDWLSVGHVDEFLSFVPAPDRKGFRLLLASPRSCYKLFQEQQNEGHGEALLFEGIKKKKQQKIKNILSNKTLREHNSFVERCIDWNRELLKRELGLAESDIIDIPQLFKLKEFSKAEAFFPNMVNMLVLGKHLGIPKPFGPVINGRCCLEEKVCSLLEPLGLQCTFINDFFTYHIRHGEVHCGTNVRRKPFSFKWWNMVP

Row | SMILES | IC50
1 | COc1cc(C(=O)N2CC3CC[C@@H]2[C@@H]3N)cc2nc(-c3cc4cccc(-c5ccc6c(c5)C(C)(C)OC(=O)N6)c4n3CC3CC3)n(C)c12 (stereo in doubt) [Example 142, 6-(2-(5-((1R,4S)-7-amino-2-azabicyclo[2.2.1]heptane-2-carbonyl)-7-methoxy-1-methyl-1H-benzo[d]imidazol-2-yl)-1-(cyclopropylmethyl)-1H-indol-7-yl)-4,4-dimethyl-1,4-dihydro-2H-benzo[d][1,3]oxazin-2-one] | 180 nM
2 | COc1cc(C(=O)N2C[C@H]3CC[C@@H]2[C@@H]3N)cc2nc(-c3cc4cccc(-c5cc[nH]n5)c4n3CC3CC3C)n(C)c12 (stereo partly drawn) [Example 157, ((1R,4R,7R)-7-amino-2-azabicyclo[2.2.1]heptan-2-yl)(7-methoxy-1-methyl-2-(1-((2-methylcyclopropyl)meth-yl)-7-(1H-pyrazol-3-yl)-1H-indol-2-yl)-1H-benzo[d]imidazol-5-yl)methanone] | 80 nM
3 | COc1cc(C(=O)N2C[C@H]3CC[C@@H]2[C@@H]3N)cc2nc(-c3cc4cccc(-c5ccc6[nH]c(=O)cc(C)c6c5)c4n3CC3CC3)n(C)c12 [Example 95, 6-(2-{5-[(1R,4R,7R)-7-amino-2-azabicyclo[2.2.1]heptane-2-carbonyl]-7-methoxy-1-methyl-1H-1,3-benzodiazol-2-yl}-1-(cyclopropylmethyl)-1H-indol-7-yl)-4-methyl-1,2-dihydroquinolin-2-one] | 107 nM
4 | COc1cc(C(=O)N2C[C@H]3CC[C@@H]2[C@@H]3N)cc2nc(-c3cc4cccc(-c5ccc6c(c5)C(C)(O)C(=O)N6)c4n3CC3CC3)n(C)c12 (stereo partly drawn) [Example 192, 5-(2-(5-((1R,4R,7R)-7-amino-2-azabicyclo[2.2.1]heptane-2-carbonyl)-7-methoxy-1-methyl-1H-benzo[d]imidazol-2-yl)-1-(cyclopropylmethyl)-1H-indol-7-yl)-3-hydroxy-3-methylindolin-2-one] | 28 nM
5 | C#CCOCC(O)Cn1cc(-c2cccc3cc(-c4nc5cc(C(=O)N6CC7CCC6[C@@H]7N)cc(OC)c5n4C)n(CC4CC4)c23)cn1 (stereo partly drawn) [Example 128, ((7R)-7-amino-2-azabicyclo[2.2.1]heptan-2-yl)(2-(1-(cyclopropylmethyl)-7-(1-(2-hydroxy-3-(prop-2-yn-1-yloxy)propyl)-1H-pyrazol-4-yl)-1H-indol-2-yl)-7-methoxy-1-methyl-1H-benzo[d]imidazol-5-yl)methanone] | 130 nM
6 | COc1cc(C(=O)N2C[C@H]3CC[C@@H]2[C@@H]3N)cc2nc(-c3cc4cc(C)cc(-c5cn[nH]c5)c4n3CC3CC3)n(C)c12 [Example 154, ((1R,4R,7R)-7-amino-2-azabicyclo[2.2.1]heptan-2-yl)(2-(1-(cyclopropylmethyl)-5-methyl-7-(1H-pyrazol-4-yl)-1H-indol-2-yl)-7-methoxy-1-methyl-1H-benzo[d]imidazol-5-yl)methanone] | 43 nM
7 | COc1cc(C(=O)N2C[C@H]3CC[C@@H]2[C@@H]3N)cc2nc(-c3cc4cccc(-c5ccc6c(c5)C(F)(F)C(=O)N6)c4n3CC3CC3)n(C)c12 [Example 190, 5-(2-(5-((1R,4R,7R)-7-amino-2-azabicyclo[2.2.1]heptane-2-carbonyl)-7-methoxy-1-methyl-1H-benzo[d]imidazol-2-yl)-1-(cyclopropylmethyl)-1H-indol-7-yl)-3,3-difluoroindolin-2-one] | 85 nM

Other lines, results leading:

Row | IC50 | SMILES
8 | 51 nM | COc1cc(C(=O)N2C[C@H]3CC[C@@H]2[C@@H]3N)cc2nc(-c3cc4cccc(C5CCCN(C(N)=O)C5)c4n3CC3CC3)n(C)c12 (stereo partly drawn) [Example 39, 3-(2-{5-[(1R,4R,7R)-7-amino-2-azabicyclo[2.2.1]heptane-2-carbonyl]-7-methoxy-1-methyl-1H-1,3-benzodiazol-2-yl}-1-(cyclopropylmethyl)-1H-indol-7-yl)piperidine-1-carboxamide]
9 | 20 nM | COc1cc(C(=O)N2C[C@H]3CC[C@@H]2[C@@H]3N)cc2nc(-c3cc4cccc(C5CCN(C(C)=O)CC5)c4n3CC3CC3)n(C)c12 [Example 15, 1-[4-(2-{5-[(1R,4R,7R)-7-amino-2-azabicyclo[2.2.1]heptane-2-carbonyl]-7-methoxy-1-methyl-1H-1,3-benzodiazol-2-yl}-1-(cyclopropylmethyl)-1H-indol-7-yl)piperidin-1-yl]ethan-1-one]
10 | 189 nM | COc1cc(C(=O)N2C[C@H]3CC[C@@H]2[C@@H]3N)cc2nc(-c3cc4cccc(C5CN(C(=O)C(C)(C)C)C5)c4n3CC3CC3)n(C)c12 [Example 67, 1-[3-(2-{5-[(1R,4R,7R)-7-amino-2-azabicyclo[2.2.1]heptane-2-carbonyl]-7-methoxy-1-methyl-1H-1,3-benzodiazol-2-yl}-1-(cyclopropylmethyl)-1H-indol-7-yl)azetidin-1-yl]-2,2-dimethylpropan-1-one]
11 | 9 nM | COc1ccccc1NC(=O)N1CCC(c2cccc3cc(-c4nc5cc(C(=O)N6C[C@H]7CC[C@@H]6[C@@H]7N)cc(OC)c5n4C)n(CC4CC4)c23)CC1 [Example 247, 4-(2-(5-((1R,4R,7R)-7-amino-2-azabicyclo[2.2.1]heptane-2-carbonyl)-7-methoxy-1-methyl-1H-benzo[d]imidazol-2-yl)-1-(cyclopropylmethyl)-1H-indol-7-yl)-N-(2-methoxyphenyl)piperi-dine-1-carboxamide]
12 | 16 nM | COCC(=O)N1CC(c2cccc3cc(-c4nc5cc(C(=O)N6C[C@H]7CC[C@@H]6[C@@H]7N)cc(OC)c5n4C)n(CC4CC4)c23)C1 [Example 71, 1-[3-(2-{5-[(1R,4R,7R)-7-amino-2-azabicyclo[2.2.1]heptane-2-carbonyl]-7-methoxy-1-methyl-1H-1,3-benzodiazol-2-yl}-1-(cyclopropylmethyl)-1H-indol-7-yl)azetidin-1-yl]-2-methoxyethan-1-one]
13 | 58 nM | COc1cc(C(=O)N2C[C@H]3CC[C@@H]2[C@@H]3N)cc2nc(-c3cc4cccc(C5CCN(C(=O)COc6ccccc6)CC5)c4n3CC3CC3)n(C)c12 [Example 235, 1-(4-(2-(5-((1R,4R,7R)-7-amino-2-azabicyclo[2.2.1]heptane-2-carbonyl)-7-methoxy-1-methyl-1H-benzo[d]imidazol-2-yl)-1-(cyclopropylmethyl)-1H-indol-7-yl)piperidin-1-yl)-2-phenoxyethan-1-one]

same assay, conditions: human PAD4, rapid-fire mass spectrum (RFMS) assay; 5 nM hPAD4, 250 μM BAEE; read-out: hPAD4 RFMS IC50

Row | IC50 | SMILES
14 | 110 nM | COc1cc(C(=O)N2C[C@H]3CC[C@@H]2[C@@H]3N)cc2nc(-c3cc4cccc(C5CC6(C5)CN(C(C)=O)C6)c4n3CC3CC3)n(C)c12 [Example 62, 1-[6-(2-{5-[(1R,4R,7R)-7-amino-2-azabicyclo[2.2.1]heptane-2-carbonyl]-7-methoxy-1-methyl-1H-1,3-benzodiazol-2-yl}-1-(cyclopropylmethyl)-1H-indol-7-yl)-2-azaspiro[3.3]heptan-2-yl]ethan-1-one]
15 | 49 nM | COc1cc(C(=O)N2C[C@H]3CC[C@@H]2[C@@H]3N)cc2nc(-c3cc4cccc(C5CCCC(C(N)=O)C5)c4n3CC3CC3)n(C)c12 (single isomer, unassigned) [Example 85]
16 | 111 nM | COc1cc(C(=O)N2C[C@H]3CC[C@@H]2[C@@H]3N)cc2nc(-c3cc4cccc(-c5ccccc5O)c4n3CC3CC3)n(C)c12 [Example 87, 2-(2-{5-[(1R,4R,7R)-7-amino-2-azabicyclo[2.2.1]heptane-2-carbonyl]-7-methoxy-1-methyl-1H-1,3-benzodiazol-2-yl}-1-(cyclopropylmethyl)-1H-indol-7-yl)phenol]
